In US20110262508A1, “ANTIMICROBIAL COMPOSITIONS, FORMULATIONS AND USES THEREOF” (priority 2007, published 2011):
Values after ≈ are worked out from the molar mass of the structure shown. Square brackets hold non-standard residues; d marks the D form. Peptide text beside a SMILES is read from it.

Key:
[1] = tested on: A. baumannii ATCC 19606, Acinetobacter spp. ATCC 17903, Acinetobacter spp. ATCC 19004, E. coli BL21, S. aureus, S. typhimurium AroA, P. aeruginosa, P. …; experiment: Antibacterial spectrum over the serial dilution panel (Table 6); format: cell-based; conditions: summary of Table 6
Experimental: Synthetic peptides were tested for their ability to inhibit bacterial growth in liquid culture. The peptides were added at a concentration of between about 5 μM and about 10 μM to individual wells of 96-deep-well dishes that contained liquid growth media freshly inoculated with one of the following bacteria: A. baumannii ATCC Accession No. 19606, Acinetobacter spp. ATCC 17903, Acinetobacter spp. ATCC 19004, Escherichia coli strain BL21, S. aureus, S. typhimurium strain AroA, P. aeruginosa or P. pneumotropica. After 5-6 hours of shaking at 37° C., growth was measured as absorbance at 595 nm. As a control, cultures were grown in the presence of 0.1% acetonitrile (i.e., the concentration present in 10 μM peptide).

A. baumannii = format: cell-based
Source text: Broth dilution methods are e.g., described by Lorian (2007) In: Antibiotics in Laboratory Medicine, Fifth Edition; and In: Clinical and Laboratory Standards Institute, CLSI (formerly NCCLS), In: Methods for Dilution Antimicrobial Susceptibility Tests for Bacteria that Grow Aerobically—Approved Standard—Seventh Edition, CLSI document M7-A7, Villanova, Pa. (NCCLS; January 2006; Vol. 26 No. 2); and In: Clinical and Laboratory Standards Institute, CLSI (formerly NCCLS), Performance Standards for Antimicrobial Susceptibility Testing, Seventeenth Informational Supplement, M100-S17, Vol 27 No. 1 January 2007, all of which are incorporated herein by reference.
The present inventors used such methods to quantitate activity in vitro of antimicrobial peptides of the invention against bacterial isolates, including laboratory strains and 50 clinical isolates of A. baumannii, and S. aureus ATCC Accession No. 2992. Briefly, small volumes of broth are dispensed in sterile, plastic microtiter trays, and 100 μl of serially-diluted antimicrobial peptide (0.1-64 μg) and 100 μl test organism (approximately 1×10^5 C.F.U.), are added. Following aerobic incubation overnight at 35±2° C. Control samples lacked peptide (Growth control), or lacked peptide and bacteria (Sterility control). The trays were examined visually and the minimal inhibitory concentration (MIC) of peptide required to inhibit bacterial growth were determined. The minimum bactericidal concentration (MBC) was estimated by sub-culturing the wells for which no bacterial growth was visible to the naked eye, to thereby determine a concentration of antimicrobial that reduces the original inoculum by at least about 99.9%.

CC[C@H](C)[C@H](NC(=O)[C@H](CO)NC(=O)[C@H](CCCNC(=N)N)NC(=O)[C@@H]1CCCN1C(=O)[C@H](Cc1c[nH]c2ccccc12)NC(=O)[C@H](Cc1c[nH]cn1)NC(=O)[C@H](CC(N)=O)NC(=O)[C@H](Cc1c[nH]c2ccccc12)NC(=O)[C@H](CCCCN)NC(=O)[C@H](CCCCN)NC(=O)CNC(=O)[C@H](CCCCN)NC(=O)[C@H](CCC(N)=O)NC(=O)[C@H](CCCCN)NC(=O)[C@H](CCCCN)NC(=O)[C@H](CO)NC(=O)[C@H](CCCNC(=N)N)NC(=O)[C@H](CC(C)C)NC(=O)[C@H](CC(N)=O)NC(=O)[C@H](C)N)C(=O)N[C@@H](CCCCN)C(=O)N[C@@H](C)C(=O)O [Ac101] (H-ANLRSKKQKGKKWNHWPRSIKA-OH; N-terminus and C-terminus assumed)
selectively inhibited growth of Acinetobacter spp. ATCC 19004, and S. aureus [1]: selectively inhibited growth

CC[C@H](C)[C@H](NC(=O)[C@H](CCCNC(=N)N)NC(=O)[C@H](CCCNC(=N)N)NC(=O)[C@H](CS)NC(=O)CN)C(=O)N[C@H](C(=O)NCC(=O)N[C@@H](Cc1ccccc1)C(=O)N[C@@H](CS)C(=O)N[C@H](C(=O)NCC(=O)N[C@@H](Cc1c[nH]c2ccccc12)C(=O)N[C@@H](CCCNC(=N)N)C(=O)N[C@@H](CC(C)C)C(=O)N[C@@H](CC(C)C)C(=O)N[C@@H](CC(C)C)C(=O)N[C@@H](CC(C)C)C(=O)N[C@@H](CC(C)C)C(=O)N[C@H](C(=O)NCC(=O)N[C@@H](CO)C(=O)NCC(=O)N[C@H](C(=O)O)C(C)C)[C@@H](C)O)C(C)C)[C@@H](C)O [Ac103] (H-GCRRITGFCVGWRLLLLLTGSGV-OH; N-terminus and C-terminus assumed)
selectively inhibited growth of S. aureus [1]: selectively inhibited growth

CSCC[C@H](N)C(=O)NCC(=O)N[C@@H](CCCNC(=N)N)C(=O)N[C@@H](CC(C)C)C(=O)N[C@@H](CO)C(=O)NCC(=O)N[C@H](C(=O)N[C@@H](C)C(=O)N[C@@H](Cc1c[nH]c2ccccc12)C(=O)N[C@@H](CCCNC(=N)N)C(=O)N[C@@H](CCCNC(=N)N)C(=O)N[C@@H](CC(C)C)C(=O)N[C@@H](CO)C(=O)N[C@@H](CC(C)C)C(=O)N[C@@H](CCCNC(=N)N)C(=O)N[C@@H](Cc1c[nH]cn1)C(=O)N[C@@H](CS)C(=O)N[C@@H](CCC(=O)O)C(=O)N[C@@H](CS)C(=O)NCC(=O)N[C@@H](CCCNC(=N)N)C(=O)N[C@@H](CCCNC(=N)N)C(=O)N1CCC[C@H]1C(=O)O)C(C)C [Ac370] (H-MGRLSGVAWRRLSLRHCECGRRP-OH; N-terminus and C-terminus assumed)
MBC (A. baumannii): 20 µM (≈ 53.9 µg/mL)
MIC (A. baumannii): 20 µM (≈ 53.9 µg/mL)
MIC (μM) for non-amidated Peptide (A. baumannii): 20 µM

CC[C@H](C)[C@H](NC(=O)[C@H](CCCNC(=N)N)NC(=O)[C@@H]1CCCN1C(=O)CNC(=O)[C@H](C)NC(=O)[C@H](CCSC)NC(=O)[C@H](CCCNC(=N)N)NC(=O)[C@H](CC(C)C)NC(=O)[C@H](CCCNC(=N)N)NC(=O)[C@H](CS)NC(=O)[C@H](CS)NC(=O)[C@H](C)NC(=O)[C@H](Cc1c[nH]c2ccccc12)NC(=O)CNC(=O)[C@H](CS)NC(=O)CNC(=O)[C@H](C)NC(=O)[C@H](C)NC(=O)[C@@H]1CCCN1C(=O)[C@H](Cc1ccccc1)NC(=O)[C@H](Cc1c[nH]c2ccccc12)NC(=O)CN)C(=O)NCC(=O)O [Ac451] (H-GWFPAAGCGWACCRLRMAGPRIG-OH; N-terminus and C-terminus assumed)
MIC (A. baumannii): 40 µM (≈ 97.5 µg/mL)

CC[C@H](C)[C@H](NC(=O)[C@@H]1CCCN1C(=O)[C@@H](NC(=O)[C@@H](NC(=O)[C@H](C)NC(=O)[C@H](CCCNC(=N)N)NC(=O)[C@H](CC(C)C)NC(=O)[C@@H](NC(=O)[C@H](C)NC(=O)[C@H](CCCNC(=N)N)NC(=O)[C@H](CC(C)C)NC(=O)[C@H](CCSC)NC(=O)[C@H](C)NC(=O)[C@@H](NC(=O)[C@@H]1CCCN1C(=O)[C@H](CC(C)C)NC(=O)[C@@H](N)C(C)C)C(C)C)[C@@H](C)O)[C@@H](C)O)C(C)C)C(=O)N[C@@H](CO)C(=O)N[C@@H](CCCNC(=N)N)C(=O)N[C@@H](CO)C(=O)N[C@@H](CCCNC(=N)N)C(=O)N[C@@H](CC(C)C)C(=O)N[C@@H](CCCNC(=N)N)C(=O)O [Ac434] (H-VLPVAMLRATLRATVPISRSRLR-OH; N-terminus and C-terminus assumed)
MBC (A. baumannii): 40 µM (≈ 103 µg/mL)
MIC (A. baumannii): 40 µM (≈ 103 µg/mL)

CC[C@H](C)[C@H](NC(=O)[C@H](C)NC(=O)[C@H](Cc1c[nH]c2ccccc12)NC(=O)[C@H](CCCNC(=N)N)NC(=O)[C@H](CC(C)C)NC(=O)[C@H](CO)NC(=O)CNC(=O)[C@H](C)NC(=O)[C@H](CCCNC(=N)N)NC(=O)[C@H](Cc1c[nH]cn1)NC(=O)[C@H](CC(=O)O)NC(=O)[C@@H](NC(=O)[C@@H]1CCCN1C(=O)[C@H](CCCNC(=N)N)NC(=O)[C@@H]1CCCN1C(=O)[C@@H](N)CCCNC(=N)N)C(C)C)C(=O)N[C@@H](C)C(=O)N[C@@H](Cc1ccccc1)C(=O)N[C@@H](CCC(N)=O)C(=O)N[C@H](C(=O)N[C@@H](CO)C(=O)N[C@@H](CO)C(=O)N[C@@H](CC(C)C)C(=O)O)C(C)C [Ac469] (H-RPRPVDHRAGSLRWAIAFQVSSL-OH; N-terminus and C-terminus assumed)
MIC (A. baumannii): 50 µM (≈ 131 µg/mL)
bactericidal or bacteriostatic against A. baumannii (A. baumannii): bacteriostatic
MBC (μM) (A. baumannii; A. baumannii (Table 8), reduces original inoculum by at least about 99.9%): bacteriostat

CC(C)C[C@@H](NC(=O)[C@@H](CCCNC(=N)N)NC(=O)[C@H](N)Cc1ccc(O)cc1)C(=O)N[C@H](CC(C)C)C(=O)N[C@H](CCCNC(=N)N)C(=O)N[C@H](CCCCN)C(=O)N[C@@H](C(=O)N[C@@H](C(=O)N[C@H](Cc1ccccc1)C(=O)N[C@H](CS)C(=O)N[C@H](CC(C)C)C(=O)N[C@H](CCCCN)C(=O)N[C@@H](C(=O)N[C@H](CO)C(=O)N[C@H](CC(C)C)C(=O)N[C@@H](C(=O)N[C@H](CCCCN)C(=O)N1CCC[C@@H]1C(=O)N[C@H](Cc1ccccc1)C(=O)N[C@H](Cc1c[nH]cn1)C(=O)N[C@H](Cc1ccccc1)C(=O)N[C@H](Cc1ccc(O)cc1)C(=O)N1CCC[C@@H]1C(=O)O)[C@H](C)O)[C@H](C)O)[C@H](C)O)[C@H](C)O [Ac5r] (H-[dY][dR][dL][dL][dR][dK][dT][dT][dF][dC][dL][dK][dT][dS][dL][dT][dK][dP][dF][dH][dF][dY][dP]-OH; N-terminus and C-terminus assumed)
MIC (μM) for amidated peptide (A. baumannii): 5 µM
MIC (μM) for non-amidated Peptide (A. baumannii): 15 µM

CC[C@H](C)[C@H](NC(=O)[C@H](CS)NC(=O)[C@H](CS)NC(=O)[C@H](CCCNC(=N)N)NC(=O)[C@H](CC(=O)O)NC(=O)[C@H](CO)NC(=O)[C@H](CC(C)C)NC(=O)[C@H](CCCNC(=N)N)NC(=O)[C@H](CCCNC(=N)N)NC(=O)[C@H](CC(C)C)NC(=O)[C@H](Cc1ccccc1)NC(=O)CNC(=O)[C@H](CO)NC(=O)[C@@H]1CCCN1C(=O)[C@H](Cc1c[nH]c2ccccc12)NC(=O)[C@@H](NC(=O)[C@@H]1CCCN1)C(C)C)C(=O)N[C@@H](Cc1c[nH]cn1)C(=O)N[C@@H](CO)C(=O)N[C@@H](CCCNC(=N)N)C(=O)N[C@@H](CCC(N)=O)C(=O)N[C@@H](C)C(=O)N[C@@H](CCC(N)=O)C(=O)O [Ac329] (H-PVWPSGFLRRLSDRCCIHSRQAQ-OH; N-terminus and C-terminus assumed)
MBC (A. baumannii): 39 µM (≈ 106 µg/mL)
MIC (A. baumannii): 30 µM (≈ 81.4 µg/mL)
